In US11096903B2, “Use of pinocarveol” (INDUSTRY-ACADEMIC COOPERATION FOUNDATION, YONSEI UNIVERSITY, priority 2015, dated 2021):
Where “and” joins values, the source holds several entries; their conditions need not be identical. Identical values can stand only once.

Legend:
AMPK = assay: Western blot of p-AMPK/AMPK in hepatic tissues; assay type: in vivo, mice; settings: PD vs HFD
Description: (§1) A predetermined amount of visceral fat or hepatic tissues was homogenized with liquid nitrogen and a lysis buffer solution in a mortar and centrifuged at 13,000×g and 4° C. for 20 minutes, and the middle layer was obtained to quantify proteins according to the Bradford method. 50 μg of the protein was subject to electrophoresis on an SDS polyacrylamide gel, was subject to electroblotting on a PVDF hyper film, and was reacted with the corresponding antibody, β-catenin, phospho-AMPK (AMP-activated protein kinase), AMPK, GAPDH (Cell-Signaling Technology, U.S.), respectively. The signal of each protein was visualized by a chemiluminescent detection system (Amersham, U.K.), and the thickness of bands was quantified by using the Quantity One Analysis Software (Bio-Rad Laboratories, U.S.).

[1] = tested on: genes related to lipogenesis; assay: RT-PCR gene expression in hepatic tissues; assay type: in vivo, mice; settings: PD vs HFD
Description: (§2) 1 mL of TRIzol solution was added per 0.1 g of adipose tissues of internal organs and hepatic tissues, and tissues were crushed and centrifuged at 4° C. and 12,000×g for 10 minutes. The supernatant was placed in a new tube, and 200 μL of chloroform was added followed by stirring. After repeating this procedure twice, the supernatant was placed in a new tube, and isopropanol and the supernatant were added at a ratio of 1:1. After strongly shaking for 10 times, the mixture was placed at room temperature for 10 minutes, centrifuged at 4° C. and 12,000×g for 10 minutes to remove the supernatant, and 1 mL of 70% ethanol was added to the precipitate to be centrifuged at 4° C. and 7,500×g for 5 minutes. After removing ethanol, the tube containing RNA precipitate was dried at room temperature for 5 minutes, and RNA pellet was dissolved using nuclease free water. By a using UV/VIS spectrophotometer (Beckman coulter, DU730, U.S.), the concentrations of RNA samples extracted at wavelengths of 260 nm and 280 nm were measured, and by carrying out agarose gel electrophoresis, the integrity of RNA samples was determined.
(§3) For RNA samples extracted from adipose tissues of internal organs and hepatic tissues, oligo dT primers and superscript reverse transcriptase (GIBCO BRL, U.S.) were used to carry out reverse transcription to synthesize cDNA. By using the cDNA obtained by reverse transcription as a […] and using a 5′ and 3′ flanking sequence of the cDNA of the gene to be amplified as a primer, PCR was carried out, and at this time, the sequences of the used primers are shown in Table 2. 1 μL of the amplified PCR product was subject to electrophoresis on a 1% agarose gel to check for DNA bands.

Dietary Obese Mice [2] = assay: Visceral fat weight in high fat diet-fed mice; assay type: in vivo; settings: 10 weeks
Description: (§4) As a control drug, metformin (Met) or sibutramine (Sibu) which is an anti-obesity drug was added at a concentration of about 0.01% to HFD and used (Table 1). For a normal diet (chow) group, a commercially available rodent chow was fed. Pinocarveol, metformin, and sibutramine were all purchased from Sigma-Aldrich Company (U.S.).
(§5) 5-week-old male C57BL/6J mice (Orient, Korea) were adjusted to a laboratory condition with solid feed for one week and randomly assigned to a high fat diet control group and experimental groups according to the randomized block method, followed by raising for ten weeks. Diet was supplied with water between 10 and 11 a.m. every day, intake amounts of diet was measured every day, and weight was measured every week. In order to prevent sudden weight changes due to feed intake, feed containers were removed, and weight was measured after 2 hours. Experimental animals were fasted for 12 hours or longer and anaesthetized by diethyl ether, and blood, liver, adipose tissues of internal organs (epididymal fat, fat around the kidney, mesenteric fat, and retroperitoneal fat) were collected, washed with 0.1M phosphate buffer solution (pH 7.4), and measured for weight. Blood collected from abdominal aorta was centrifuged at 1,000×g for 15 minutes to separate blood plasma.
After feeding the experimental diets for 10 weeks, each of epididymal fat, fat around the kidney, mesenteric fat, and retroperitoneal fat, which compose visceral fat, was extracted to measure the weight thereof.

β-catenin = assay: Western blot of β-catenin in adipose tissues of internal organs; assay type: in vivo, mice; settings: PD vs HFD
Description: as §1

[3] = tested on: genes related to thermogenesis and adipogenesis; assay: RT-PCR gene expression in adipose tissues of internal organs; assay type: in vivo, mice; settings: PD vs HFD
Description: as §2, §3

Dietary Obese Mice [4] = assay: Oral glucose tolerance test; assay type: in vivo; settings: PD vs HFD group, at 8 weeks, d-glucose 2 g/kg oral
Description: An obesity inducing diet used in the present invention included a high fat control diet (HFD: 40% fat calorie, 17 g lard, and 3% corn oil/100 g diet), and a pinocarveol-supplemented high fat diet (PD) supplemented with pinocarveol (80,613, Sigma-Aldrich Company, CAS Number: 547-61-5, (1S,3R,5S)-6,6-dimethyl-2-methylenebicyclo[3,1,1]heptan-3-ol) has the same composition as HFD, but about 0.2% of pinocarveol was added. As a control drug, metformin (Met) or sibutramine (Sibu) which is an anti-obesity drug was added at a concentration of about 0.01% to HFD and used (Table 1). For a normal diet (chow) group, a commercially available rodent chow was fed. Pinocarveol, metformin, and sibutramine were all purchased from Sigma-Aldrich Company (U.S.).
At 8 weeks of experimental raising, experimental animals were fasted for 16 hours and orally administered with d-glucose corresponding to 2 g/kg body weight, and blood was collected from the tail vein of mice at time points of 15 minutes, 30 minutes, 60 minutes, and 120 minutes. The glucose concentration of collected blood was measured by using a script-operation blood glucose sensor (ONETOUCH Ultra, Inverness Medical Ltd., U.K.).

[5] = tested on: IL-6, TNFα, MCP1, and leptin; assay: Inflammatory cytokine concentration in blood (ELISA); assay type: in vivo, mice; settings: PD vs HFD group, 10 weeks
Description: as §4
The concentrations of plasma IL-6, TNFα, MCP1, and leptin were measured by the ELISA method using the Milliplex map kit (Millipore Corporation, U.S.).

Dietary Obese Mice [6] = assay: Liver weight and lipid concentration of hepatic tissue (Folch extraction); assay type: in vivo; settings: PD vs HFD group, 10 weeks
Description: as §4, §5
Lipid components of hepatic tissues were collected as follows according to the method by Folch, et al. (Folch J, Lees M, Sloane Stanley G H. A simple method for the isolation and purification of total lipids from animal tissues. J Bio Chem. 1957; 226: 497-509). 1 mL of distilled water was applied to a hepatic tissue (0.25 g) and homogenized by using a Polytron homogenizer (IKA-WERKE GmbH & Co., Ultra-Turrax, Staufen, Germany). 5 mL of a chloroform:methanol solution (2:1, v/v) was added to the homogeneous solution, mixed well and centrifuged at 1,000×g for 10 minutes to separate a lower phase. 2 mL of a chloroform:methanol solution (2:1, v/v) was added to an upper phase again, and after repeating the same procedure, lipid components of the liver were completely separated. 3 mL of a chloroform:methanol:0.05% CaCl2) (3:48:47, v/v/v) solution was added to the lower phase thus obtained, mixed for 1 minute, and centrifuged at 1,000×g for 10 minutes. After obtaining the final lower phase and completely drying with nitrogen gas, the dried lipids were dissolved in 1 mL of methanol to use for lipid component analysis.
The concentrations of neutral fat, cholesterol, and free fatty acids of the lipid extracts of hepatic tissues were measured by using the same commercially available measurement kit (Bio Clinical System, Korea) as previously used for the analysis of plasma lipid concentration.

Dietary Obese Mice [7] = assay: Body weight gain, diet intake and food efficiency ratio in high fat diet-fed mice; assay type: in vivo; settings: 10 weeks
Description: as §4, §5

[8] = cited from earlier work
Dietary Obese Mice [9] = assay: Plasma lipid concentration (commercial measurement kit); assay type: in vivo; settings: 10 weeks
Description: as §4, §5
In order to evaluate the concentrations of plasma cholesterol, neutral fat, and free fatty acids of experimental animals raised for ten weeks, a commercially available measurement kit (Bio Clinical System, Korea) was used to perform measurement by repeating 2 measurements, respectively.

Dietary Obese Mice [10] = assay: Liver function indexes (ALT, AST activity) in blood plasma; assay type: in vivo; settings: PD vs HFD group, 10 weeks
Description: as §4, §5

Dietary Obese Mice [11] = assay: Fasting blood glucose and insulin concentration; assay type: in vivo; settings: PD vs HFD group, 10 weeks
Description: as §4
Meanwhile, the glucose concentration of the blood plasma obtained during fasting which was collected from mice raised for 10 weeks was measured by using a biochemical automatic analyzer (Express Plus, Chiron Diagnostics Co., U.S.), and kit reagents for analysis were purchased from Bio-Clinical System (Korea).
The insulin concentration of blood plasma obtained during fasting was measured by using a mouse insulin ELISA kit (Millipore Corporation, U.S.).

C=C1[C@H](O)C[C@@H]2C[C@H]1C2(C)C [pinocarveol, (1S,3R,5S)-6,6-dimethyl-2-methylenebicyclo[3,1,1]heptan-3-ol]
activation (p-AMPK/AMPK ratio) of AMPK (AMPK): significant increase
activation (p-AMPK/AMPK ratio) of AMPK (AMPK; listed as PD): significantly increased
ACC gene expression [1]: significantly decreased
FAS gene expression [1]: significantly decreased
LPL gene expression [1]: significantly decreased
LXRα gene expression [1]: significantly decreased
SREBP gene expression [1]: significantly decreased
ACC gene expression ([1]; listed as PD): significantly decreased again
FAS gene expression ([1]; listed as PD): significantly decreased again
LPL gene expression ([1]; listed as PD): significantly decreased again
LXRα gene expression ([1]; listed as PD): significantly decreased again
SREBP gene expression ([1]; listed as PD): significantly decreased again
decrease in total visceral fat weight (Dietary Obese Mice [2]; PD vs HFD group): 32%
weights of epididymal fat, fat around the kidney, mesenteric fat, and retroperitoneal fat (Dietary Obese Mice [2]; PD vs HFD group): significantly reduced
effect of reducing body weight and visceral fat amount compared with control drugs (Dietary Obese Mice [2]; vs sibutramine and metformin diets): as much excellent effect of reducing body weight and visceral fat amount as commercially available anti-obesity drugs (sibutramine) and diabetes treatment drugs (metformin)
protein expression amount of β-catenin (β-catenin): significant increase
protein expression amount of β-catenin (β-catenin; listed as PD): significantly increased
C/EBPα gene expression [3]: significantly decreased
CD36 gene expression [3]: significantly decreased
FAS gene expression [3]: significantly decreased
PGC-1α gene expression [3]: significantly increased
PPARγ2 gene expression [3]: significantly decreased
UCP1 gene expression [3]: significantly increased
UCP3 gene expression [3]: significantly increased
leptin gene expression [3]: significantly decreased
C/EBPα gene expression ([3]; listed as PD): significantly decreased again
CD36 gene expression ([3]; listed as PD): significantly decreased again
FAS gene expression ([3]; listed as PD): significantly decreased again
PGC-1α gene expression ([3]; listed as PD): significantly increased again
PPARγ2 gene expression ([3]; listed as PD): significantly decreased again
UCP1 gene expression ([3]; listed as PD): significantly increased again
UCP3 gene expression ([3]; listed as PD): significantly increased again
leptin gene expression ([3]; listed as PD): significantly decreased again
blood glucose concentrations over time after sugar intake (OGTT) (Dietary Obese Mice [4]): decrease
reduction of area under the curve (AUC) of the glucose concentration (OGTT) (Dietary Obese Mice [4]): 20%
decrease in plasma IL-6 concentration [5]: 70%
decrease in plasma MCP1 concentration [5]: 35%
decrease in plasma TNFα concentration [5]: 28%
decrease in plasma leptin concentration [5]: 40%
decrease in absolute liver weight (Dietary Obese Mice [6]): 30%
decrease in free fatty acid concentration of hepatic tissue (Dietary Obese Mice [6]): 65%
decrease in neutral fat concentration of hepatic tissue (Dietary Obese Mice [6]): 33%
decrease in total cholesterol concentration of hepatic tissue (Dietary Obese Mice [6]): 31%
decrease in cumulative body weight gain (Dietary Obese Mice [7]; PD (about 0.2% pinocarveol in HFD) vs HFD group): 32%
decrease in food efficiency ratio (cumulative body weight gain / total diet intake) (Dietary Obese Mice [7]; PD vs HFD group): 32%
solubility in oil and ethanol ([8]; oil and ethanol): dissolve in oil and ethanol
solubility in water ([8]; water): does not dissolve
decrease in plasma free fatty acid concentration (Dietary Obese Mice [9]; PD vs HFD group): 39%
decrease in plasma neutral fat concentration (Dietary Obese Mice [9]; PD vs HFD group): 27%
decrease in plasma total cholesterol concentration (Dietary Obese Mice [9]; PD vs HFD group): 16%
HDL-cholesterol concentration in blood (Dietary Obese Mice [9]; between the experimental groups): did not show any significant difference
decrease in alanine aminotransferase (ALT) activity in blood plasma (Dietary Obese Mice [10]): 44% and 52%
decrease in aspartate aminotransferase (AST) activity in blood plasma (Dietary Obese Mice [10]): 32% and 34%
decrease in fasting blood glucose concentration (Dietary Obese Mice [11]): 21%
decrease in fasting blood insulin concentration (Dietary Obese Mice [11]): 50%
